Laboratory results as given in publication PMC7672456 (Nucleic Acids Research, 2020).

Assays:
PfLysRS [1] = target: T1, PfLysRS (Plasmodium falciparum, UniProt Q8IDJ8); conditions: cited from earlier work
PfLysRS [2] = target: T1, PfLysRS; test: Thermal shift assay; assay type: binding; conditions: for increase of Tm of PfLysRS: 200 μM compound
HsLysRS [3] = target: T2, HsLysRS (Homo sapiens, UniProt Q15046); test: ATP hydrolysis assay; assay type: biochemical
P. falciparum strain 3D7 = test: In vitro Plasmodium growth assay; assay type: cell-based, Plasmodium falciparum
PfLysRS [4] = target: T1, PfLysRS; test: Surface plasmon resonance; assay type: binding
HsLysRS [5] = target: T2, HsLysRS; test: Thermal shift assay; assay type: binding; conditions: in the presence or absence of L-lysine
[6] = phase I, patients, oral; cited from earlier work
[7] = test system: mammalian protein translation system; test: Mammalian protein translation assay in rabbit reticulocyte lysate; assay type: biochemical; conditions: firefly luciferase mRNA

T2 sequence (Q15046 70-581): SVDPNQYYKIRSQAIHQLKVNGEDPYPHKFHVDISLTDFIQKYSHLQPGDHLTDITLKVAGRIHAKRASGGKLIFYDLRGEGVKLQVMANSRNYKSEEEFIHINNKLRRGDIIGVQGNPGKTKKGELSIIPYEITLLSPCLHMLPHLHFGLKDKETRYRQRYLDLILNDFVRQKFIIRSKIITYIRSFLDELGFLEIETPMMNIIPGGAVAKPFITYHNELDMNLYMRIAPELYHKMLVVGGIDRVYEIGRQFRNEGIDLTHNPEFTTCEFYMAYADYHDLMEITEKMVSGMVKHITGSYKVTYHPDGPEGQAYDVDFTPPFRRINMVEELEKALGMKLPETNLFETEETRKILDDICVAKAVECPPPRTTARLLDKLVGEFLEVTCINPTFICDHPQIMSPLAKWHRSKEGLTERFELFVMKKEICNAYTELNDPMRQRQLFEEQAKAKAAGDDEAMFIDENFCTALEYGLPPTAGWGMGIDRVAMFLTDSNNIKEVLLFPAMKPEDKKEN
T1 sequence (Q8IDJ8 77-583 limits assumed): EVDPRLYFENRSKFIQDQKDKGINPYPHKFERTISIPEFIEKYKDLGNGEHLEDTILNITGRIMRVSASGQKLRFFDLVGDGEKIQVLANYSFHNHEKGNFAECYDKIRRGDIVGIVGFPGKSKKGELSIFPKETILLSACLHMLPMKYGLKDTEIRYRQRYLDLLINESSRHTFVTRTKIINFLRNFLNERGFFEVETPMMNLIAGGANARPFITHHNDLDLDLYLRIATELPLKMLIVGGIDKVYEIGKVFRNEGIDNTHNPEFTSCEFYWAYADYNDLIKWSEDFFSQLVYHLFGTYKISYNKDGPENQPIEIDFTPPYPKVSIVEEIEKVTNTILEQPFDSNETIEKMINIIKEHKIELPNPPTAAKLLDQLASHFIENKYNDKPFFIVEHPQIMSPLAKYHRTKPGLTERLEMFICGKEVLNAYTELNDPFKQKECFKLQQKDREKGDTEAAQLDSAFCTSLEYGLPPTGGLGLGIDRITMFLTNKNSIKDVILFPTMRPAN

Row | SMILES | IC50 (PfLysRS [1]) [µM] | fold lower IC50 on PfLysRS compared to other eukaryotic LysRSs including human LysRS (PfLysRS [1]) [fold] | Kd (PfLysRS [2]) [µM] | increase of Tm of PfLysRS (PfLysRS [2]; in the presence of L-lysine (500 μM)) [°C] | increase of Tm of PfLysRS (PfLysRS [2]; without L-lysine, 10 μM PfLysRS) [°C] | IC50 (HsLysRS [3]) [µM] | fold less potent on HsLysRS than on PfLysRS (IC50 ratio) (HsLysRS [3]; ATP hydrolysis IC50 HsLysRS versus PfLysRS) | IC50 (P. falciparum strain 3D7; Plasmodium falciparum, 3D7, 72 h) [µM] | parasite growth and morphology (P. falciparum strain 3D7; synchronized ring stage, 25 μM, monitored over 72 h, Giemsa smears) | Kd (PfLysRS [4]) [µM] | koff (PfLysRS [4]) [s⁻¹] | kon (PfLysRS [4]) [M⁻¹ s⁻¹] | thermal stability of HsLysRS (HsLysRS [5]) | half-life range [6] [h] | median half-life [6] [h] | IC50 [7] [µM]
1 | C[C@H]1CCC[C@H](C[C@H]2Cc3cc(O)cc(O)c3C(=O)O2)O1 [cladosporin] | ~0.004 | 1000 | – | – | – | – | – | – | – | – | – | – | – | – | – | –
2 | COc1cc(N2CCC(N3CCN(C)CC3)CC2)ccc1Nc1ncnc(Nc2ccccc2S(=O)(=O)C(C)C)n1 [ASP3026, N-{2-Methoxy-4-[4-(4-methylpiperazin-1-yl)piperidin-1-yl]phenyl}-N'-[2-(propane-2-sulfonyl)phenyl]-1,3,5-triazine-2,4-diamine] | – | – | ~0.238 | 8.0 | 10.0 | > 250 | over 380 fold | 5.61 ± 0.26 | stopped growing completely until they eventually died | 0.239 | 0.0063 | 26400 | could not increase the thermal stability | 22 to 85 | 35 | > 1000
